Data reported in US8242087B2, “Phosphate modified nucleosides useful as substrates for polymerases and as antiviral agents” (priority 2007, dated 2012).

Experiments:
Format in all cases: biochemical, HIV-1
[1] = molecular target: T1, HIV reverse transcriptase (Human immunodeficiency virus type 1 group M subtype B, UniProt P03366); test: Gel-based single-nucleotide-incorporation and control assays with HIV RT (Example 4); conditions: for conversion to a n+1 strand: 60 min, 500 μM nucleotide concentration, P1T2 (9), P1T4 (10), P2T4 (11); for control experiment with a mismatch sequence: A against A P1T4 (12), G against A P1T4 (9), T against C P1T2 (10), C against T P1T1 (11); for incorporation with blunt ended duplex: primer P1, template A
T1 construct: performed for the enzyme HIV reverse transcriptase (GE Healthcare, 30 U/4 stock solution); purchased GE Healthcare
Experimental: End-labeled primers were annealed to their template by combining primer and templates in a molar ratio of 1:2 and heating the mixture to 70° C. for 10 minutes, followed by slow cooling to room temperature over a period of 2.5 hours. For the incorporation of L-Asp-dGMP (9), L-Asp-dTMP (10), L-Asp-dCMP (11), and N-Me-Asp-dAMP (12) (see FIG. 13), the primer P1 was annealed to templates T1, T2, T4 or A and P2 was annealed to T4. A series of 20 μL reactions was performed for the enzyme HIV reverse transcriptase (GE Healthcare, 30 U/4 stock solution). The final mixture contained 125 nM primer-template complex, RT buffer (250 mM TrisHCl, 250 mM KCl, 50 mM MgCl2, 2.5 mM spermidine, 50 mM DTT, pH 8.3), 0.03 U/μL HIV RT and different amino acid phosphoramidates building blocks concentrations. In the control reaction with the natural nucleotide, 10 μM or 50 μM dGTP, dTTP, dATP or dCTP were used. The mixture was incubated at 37° C. […] and aliquots were quenched after 5, 10, 20, 30, 60 and 120 minutes respectively.
(§1) All polymerase reactions (3 μL) were quenched by the addition of 10 μL of loading buffer (90% formamide, 0.05% bromophenol blue, 0.05% xylene cyanol and 50 mM EDTA). Samples were heated at 70° C. for 5 minutes prior to analysis by electrophoresis for 2-3 hours at 2000 V on a 0.4 mm 20% denaturing gel in the presence of a 100 mM Tris-borate, 2.5 mM EDTA buffer, pH 8.3. Products were visualized by phosphor imaging. The amount of radioactivity in the bands corresponding to the products of enzymatic reactions was determined by using the Optiquant image analysis software (Perkin Elmer).

[2] = molecular target: T1, HIV reverse transcriptase; test: Steady-state kinetic assay of Asp-dNMP incorporation by HIV RT (Example 4); conditions: 37° C.; P1-T2, P1-T4 or P2T4
Experimental: To determine the kinetic parameters of the incorporation of Asp-dGMP (9), Asp-dTMP (10), Asp-dCMP (11) or dGTP, dTTP, dCTP, a steady-state kinetic assay was carried out. The reaction mixture was started by adding HIV reverse transcriptase to P1-T2, P1-T4 or P2T4 complex, buffer and Asp-dGMP, Asp-dTMP, Asp-dCMP or dGTP, dTTP, dCTP. The final mixture (20 μL) contained 0.015 or 0.0075 U/μL HIV reverse transcriptase, buffer, 125 nM primer-template complex and various concentrations of Asp-dNMP or dNTP. A concentration range of 0.01-1 mM was used for Asp-dNPM and a concentration range of 0.1-10 μM was used for dNTP. Reactions were incubated at 37° C. Reaction times were between 1 and 120 minutes. The kinetic constants Vmax and KM were determined from a Michaëlis-Menten plot, using GraphPad Prism version 3.02.
as §1

[3] = molecular target: T2, HIV RT (Human immunodeficiency virus type 1 group M subtype B, UniProt P03366); test: Steady state kinetics of single nucleotide incorporation by HIV RT (P1/T1); conditions: P1/T1, 37° C.
T2 construct: HIV RT polymerase was purchased from GE Healthcare; purchased GE Healthcare (Amersham Bioscience)
Experimental: The steady steate kinetics of a single nucleotide incorporation of an amino acid phosphoramidate (AA-dAMP) and of a natural nucleoside triphosphate (dATP) was determined by the gel-based polymerase assay. In all the experiments, the template T1 and the primer P1 were used (Table 1). The primer and template in 1:2 molar ratio were hybridized in a buffer containing 20 mM TRIS.HCl, 10 mM KCl, 2 mM MgSO4, 0.1% Triton X-100, pH 8.8 and used in an amount to provide 125 nM concentration of the primer in each 12 μL reaction. The range of concentrations for amino acid phosphoramidates was optimized according to a Km value for the incorporation of an individual nucleotide. In the case of HIV RT (Amersham Bioscience (GE Healthcare), 30 U/μL), reaction mixtures containing the enzyme in concentration to attain 5-20% conversion and appropriate substrate concentration (nucleoside phosphoramidate or natural dNTP) were incubated at 37° C. and run for 8-10 different time intervals. Kinetic analysis of single nucleotide incorporation by Therminator DNA polymerase (NEB, 2 U/μL) was performed similarly except the incubations and polymerase reactions, which were carried out at 70° C. To prevent solvent condensation/evaporation, the reaction mixtures were topped with mineral oil. The reactions were quenched by addition of the buffer containing 80% formamide, 2 mM EDTA, 1×TBE buffer. The analysis of polymerase reactions was performed by polyacrylamide gel electrophoresis (20% (19:1 mono:bis), 7M urea, 30 cm×40 cm×0.4 mm). The relative band intensities were measured using OptiQuant software. The rates of incorporation (V) were calculated based on the percentage of the extension production (n+1 band). The kinetic parameters (Vmax and Km) were determined by plotting V (pmol/min·U) versus substrate concentration and fitting the data point to a rectangular hyperbola using GraphPad Prism software.

[4] = molecular target: T1, HIV reverse transcriptase; test: Gel-based single-nucleotide-incorporation and control assays with HIV RT (Example 4); conditions: P1/T2, compound 9 alone
[5] = molecular target: T3, HIV reverse transcriptase (HIV RT) (Human immunodeficiency virus type 1 group M subtype B, UniProt P03366); test: Single nucleotide incorporation by HIV RT, gel-based, P1/T1 (Examples 2-3); conditions: single nucleotide incorporation, FIG. 4
T3 construct: HIV RT polymerase was purchased from GE Healthcare; purchased GE Healthcare (Amersham Bioscience)
Experimental: A typical single nucleotide incorporation and primer extension assays using HIV RT polymerase was carried out similar to one described in the literature. HIV RT polymerase was purchased from GE Healthcare and was supplied as either 12 or 30 U/μL stock solution. The final concentration of HIV RT in a reaction mixture was 0.03-0.003 U/μL. A primer/template duplex mixture was prepared by combining appropriate amounts of a 5′-^33P-labeled primer (P1) and a template in 1:2 molar ratio to provide a 4× solution with 0.5 μM primer concentration. The polymerase reactions were carried out in a 5×RT buffer containing 250 mM TRIS.HCL, 250 mM KCl, 50 mM MgCl2, 2.5 mM spermidine, 50 mM DTT, pH 8.3. For the single nucleotide incorporation assay, a P1/T1 primer-template pair was used whereas the primer extension study was performed with P1/T3 and P1/T5 primer-template pairs.
Briefly, a mixture containing 5 μL of the 4× primer/DNA duplex solution and 5 μL of 4× polymerase solution was pre-incubated at 37° C. for 2 minutes to ensure formation a DNA polymerase/DNA duplex complex. Simultaneously, 2× solutions of dNTP to provide final concentrations of 100 μM, 200 μM, 500 μM and 1 mM were also pre-incubated at 37° C. for 2 minutes as well. The polymerase reaction in a total volume of 20 μL was initiated by addition of 10 μL of the 2× dNTP solution to the DNA polymerase/DNA duplex mixture. The reactions were run at 37° C. and aliquots (2.5 μL) were removed at specified time points and mixed with 10 μL of a quenching buffer containing 80% formamide, 2 mM EDTA, 1×TBE. Quenched reactions were analyzed by loading 2 μL of a reaction sample onto a 20% denaturing polyacrylamide:gel (19:1 acrylamide:bisacrylamide, 7M urea, 0.4 mm×30 cm×40 cm) made in 1×TBE buffer (90 mM Tris-borate, 2 mM EDTA, pH 8.3). The gel was pre-equilibrated for 2 hours before loading and the reactions were run along with a tracking dye marker containing bromophenol blue (BB) and xylene cyanol (XC) until the BB dye had run ⅔ of the total gel length. For visualization, gels were scanned using a Cyclone Phosphoroimager.

Row | Compound | conversion to a n+1 strand [1] [%] | control experiment with a mismatch sequence [1] | incorporation with blunt ended duplex [1] | Km [2] [µM] | Vmax [2] [pmolmin^−1U] | further results
1 | Cc1cn([C@H]2C[C@H](O)[C@@H](COP(=O)(O)N[C@@H](CC(=O)O)C(=O)O)O2)c(=O)[nH]c1=O [Compound 10, 2′-Deoxythymidine-5′-aspartyl phosphoramidate] | 95 | primer elongation was not observed | none of these compounds incorporated at all | 288 ± 61.7 | 2.33 ± 0.22 | 
2 | Cc1cn([C@H]2C[C@H](O)[C@@H](COP(=O)(O)OP(=O)(O)OP(=O)(O)O)O2)c(=O)[nH]c1=O [dTTP, reference compound] |  |  |  | 0.53 ± 0.07 | 30.82 ± 1.44 | 
3 | Nc1ncnc2c1ncn2[C@H]1C[C@H](O)[C@@H](COP(=O)(O)OP(=O)(O)OP(=O)(O)O)O1 [dATP, reference compound] |  |  |  |  |  | Km [3]: 0.46 ± 0.15 µM; Vmax [3]: 8.39 ± 0.82 pmol/min · U
4 | CN(C(CC(=O)O)C(=O)O)P(=O)(O)OC[C@H]1O[C@@H](n2cnc3c(N)ncnc32)C[C@@H]1O (some centres unmarked) [Compound 12, 2′-Deoxyadenosine-5′-N-methylaspartyl phosphoramidate] |  | misincorporated against adenine |  |  |  | base-pairing selectivity of incorporation ([1]; P1/T1): without base-pairing selectivity; substrate quality for HIV-RT ([1]; P1/T1): good substrate
5 | Nc1nc2c(ncn2[C@H]2C[C@H](O)[C@@H](COP(=O)(O)N[C@@H](CC(=O)O)C(=O)O)O2)c(=O)[nH]1 [Compound 9, 2′-Deoxyguanosine-5′-aspartyl phosphoramidate] | 92 | primer elongation was not observed | none of these compounds incorporated at all | 169 ± 27.9 | 2.143 ± 0.13 | n+1 conversion (incorporation) ([4]; 4 hours (same as at 2 hours)): 95%; misincorporation ([4]; four hours): no misincorporation was observed
6 | Nc1nc2c(ncn2[C@H]2C[C@H](O)[C@@H](COP(=O)(O)OP(=O)(O)OP(=O)(O)O)O2)c(=O)[nH]1 [dGTP, reference compound] |  |  |  | 0.54 ± 1.55 | 28.81 ± 1.55 | 
7 | CC(NP(=O)(O)OC[C@H]1O[C@@H](n2cnc3c(N)ncnc32)C[C@@H]1O)C(=O)O (some centres unmarked) [Compound 4, 2′-deoxy-adenosine-5′-alanyl-phosphoramidate] |  |  |  |  |  | fold reduction in primer extension [5]: 7 fold
8 | Nc1ccn([C@H]2C[C@H](O)[C@@H](COP(=O)(O)OP(=O)(O)OP(=O)(O)O)O2)c(=O)n1 [dCTP, reference compound] |  |  |  | 3.74 ± 0.95 | 5.62 ± 0.80 | 
9 | Nc1ccn([C@H]2C[C@H](O)[C@@H](COP(=O)(O)N[C@@H](CC(=O)O)C(=O)O)O2)c(=O)n1 [Compound 11, 2′-Deoxycytidine-5′-aspartyl phosphoramidate] | 82 | primer elongation was not observed | none of these compounds incorporated at all | 131 ± 19.8 | 0.59 ± 0.04 | 
